Tests used:
[1] = tested on: Trichomonas vaginalis; assay: Antiparasitic activity against Trichomonas vaginalis T1 at 100 uM after 24 hrs by hemocytometric analysis; format: functional; conditions: T1, 24 h
[2] = tested on: Trichomonas vaginalis; assay: Antiparasitic activity against Trichomonas vaginalis G3 at 100 uM after 24 hrs by hemocytometric analysis; format: functional; conditions: G3, 24 h
[3] = tested on: Trichomonas vaginalis; assay: Antiparasitic activity against Trichomonas vaginalis G3 after 24 hrs by hemocytometric analysis; format: functional; conditions: G3, 24 h
[4] = tested on: Trichomonas vaginalis; assay: Antiparasitic activity against Trichomonas vaginalis T1 after 24 hrs by hemocytometric analysis; format: functional, organism-based; conditions: T1, 24 h
[5] = Cytotoxicity against human erythroid progenitor cells; format: cell-based
[6] = Cytotoxicity against human CFU-GM cells; format: cell-based

Structure (SMILES)	inhibition at 100 µM [1]	inhibition at 100 µM [2]	IC50 [3]	IC50 [4]	IC50 [5]	IC50 [6]
O=C(Nc1ccc(Cl)c(Cl)c1)c1ccc(Cl)cc1	46%	28%	–	–	–	–
O=Cc1ccc(-c2ccc(Cl)cc2[N+](=O)[O-])o1	59%	46%	–	–	–	–
COc1ccc(C(=O)Nc2ccc(Cl)c(Cl)c2)cc1	22%	13%	–	–	–	–
O=C(Nc1ccc(Cl)c(Cl)c1)c1cccc2ccccc12	49%	37%	–	–	–	–
COc1ccc(NC(=O)C2CCCCC2)cc1OC	34%	10%	–	–	–	–
COc1ccc(-c2ccccc2)cc1NC(=O)C1CCCCC1	36%	28%	–	–	–	–
O=C(Nc1ccc(Cl)c(Cl)c1)C12CC3CC(CC(C3)C1)C2	0%	19%	–	–	–	–
O=C(Nc1ccc(Cl)c(Cl)c1)c1cccc([N+](=O)[O-])c1	22%	51%	–	–	–	–
O=C(Nc1ccc(O)cc1)C1CCCCC1	25%	39%	–	–	–	–
O=C(Nc1ccc(Cl)c(Cl)c1)c1ccc([N+](=O)[O-])cc1	44%	40%	–	–	–	–
O=C(Nc1ccc(Cl)c(Cl)c1)c1cccc(C(F)(F)F)c1	69%	66%	90 µM	77 µM	–	–
O=C(Nc1ccc(Cl)c(Cl)c1)c1cccc(F)c1	29%	61%	–	–	–	–
O=C(Nc1ccc(Cl)c(Cl)c1)c1cccc(Cl)c1	19%	70%	–	–	–	–
O=C(Nc1ccc(Cl)c(Cl)c1)c1ccc(Cl)cc1Cl	38%	46%	–	–	–	–
O=C(Nc1ccc(Cl)c(Cl)c1)c1ccc(Cl)c(Cl)c1	29%	55%	–	–	–	–
O=C(Nc1ccc(Cl)c(Cl)c1)C1CCCCC1	62%	30%	–	–	–	–
O=C(Nc1ccc(Cl)c(Cl)c1)c1ccc(-c2ccccc2)cc1	64%	24%	–	–	–	–
CC(=O)Nc1ccc(O)cc1 [ACETAMINOPHEN]	17%	14%	–	–	–	–
O=C1C(Cl)=C(Cl)C(=O)C(Cl)=C1Cl [CHLORANIL]	12%	40%	–	–	–	–
O=C1C=CC(=O)c2c(O)cccc21 [JUGLONE]	39%	49%	–	–	–	–
Cc1ncc([N+](=O)[O-])n1CCO [METRONIDAZOLE]	–	–	0.77 µM	0.72 µM	–	–
CCC(=O)Nc1ccc(Cl)c(Cl)c1 [PROPANIL]	29%	20%	–	120 µM	305 µM	> 500 µM

From ChEMBL document CHEMBL1221263, “Preliminary studies of 3,4-dichloroaniline amides as antiparasitic agents: structure-activity analysis of a compound library in vitro against Trichomonas vaginalis” (Bioorg Med Chem Lett, 2010)
